Results published in patent US20230181535A1, “UBIQUITIN-LIGASE INHIBITORS FOR THE TREATMENT OF CANCER” (FUNDACIÓN PROFESOR NOVOA SANTOS, priority 2020, published 2023).

Tests used:
[1] = tested on: mouse-cryopreserved hepatocytes; experiment: Hepatocyte stability, mouse; assay type: in vitro ADME; settings: 3 μM
Protocol: (§1) Test compound (final substrate concentration 3 μM; final DMSO concentration 0.25%) were pre-incubated at 37° C., prior to the addition of a suspension of cryopreserved hepatocytes (final cell density 0.5×10^6 viable cells/mL in Williams E media supplemented with 2 mM L glutamine and 25 mM HEPES) to initiate the reaction. The reactions were stopped with acetonitrile containing internal standard at the appropriate time points ([…]). The termination plates were centrifuged at 2500 rpm at 4° C. for 30 minute to precipitate the protein. Following the hepatocyte stability assays, the samples were utilized for metabolite profiling. Hepatocyte stability in mouse and human was performed by using the incubation of tested compound (3 μM) with cryopreserved hepatocytes in suspension. Samples were removed at 6 time points over the course of a 60 min experiment and remaining test compound at each time point was analysed by using LC-MS/MS. Then, data was analysed and an intrinsic clearance (CLint) with standard error and half-life (t½) reported.

[2] = tested on: HCT116 colon cancer cells; experiment: MTT cell viability assay, HCT116; assay type: cell-based, human; settings: concentrations tested in the previous assays
Protocol: (§2) For cytotoxicity assays, 1×10^4 cells were seeded per well into a 96-well plate. After 24 h cells were treated with the indicated inhibitors for 72 h and a MTT colorimetric cell viability assay was performed following manufacturer's instructions (Sigma Aldrich, St Louis, Mo.). Absorbance was measured at 570 and 630 nm using a Multiskan Plus Reader (Nanoquant Infinite M200 Tecan Trading AG, Switzerland). Dose-response curves were designed with Graph Pad Prism Software and the half-maximal inhibitory concentration (IC50) values were calculated. Represented data are the mean±SEM of at least three independent experiments with six replicates per condition.

[3] = tested on: Hakai-MDCK cell lines (clone 4 and clone 11); experiment: MTT cell viability assay, Hakai-MDCK; assay type: cell-based; settings: Hakai-MDCK clone 4 and clone 11, compared with MDCK
Protocol: as §2

LoVo cells [4] = experiment: BrdU proliferation assay, LoVo; assay type: cell-based; settings: 48 h
Protocol: (§3) For BrdU assays, 1×10^4 of indicated cells were plated per well into a 96-well plate. After 24 h, cells were treated with the indicated inhibitors for 48 h. Three independent experiments were plated with six replicates per each condition. Cells were treated with […] BrdU for 2 h. BrdU incorporation into newly synthesized DNA was measured using a cell proliferation colorimetric immunoassay kit according to the manufacturer's instructions (Roche, Switzerland). Results are expressed as mean±S.D. Results are represented as percentage of positive cells (mean±S.D) of three independent experiments.

[5] = Hepatocyte stability, mouse; assay type: in vitro ADME; settings: cryopreserved mouse hepatocytes in suspension, read-out: half-life (T½)
Protocol: as §1

LoVo cells [6] = experiment: Immunofluorescence of E-cadherin, LoVo; assay type: cell-based; settings: 48 h, vs DMSO
Protocol: For western blot analysis, cells were treated with the indicated inhibitors for 48 h and the whole cell extracts were obtained as described previously. Twenty micrograms of lysates were resolved on a 10% polyacrilamide SDS-PAGE followed by western blot analysis performed as previously described. For immunofluorescence assays cells were grown for 24 h on glass coverslips and treated with the indicated inhibitors for 48 h. Cells were fixed with 4% PFA for 15 min, permeabilized with 0.5% […] and incubated with E-cadherin antibody for 2 h. Coverslips were incubated with fluorescein-tagged secondary antibody (Dakopatts, Sweden) for […]. Finally coverslips were mounted with ProLong Gold antifade reagent (LifeTech, UK) and images were taken in epifluorescence microscope (Olympus) using 40× objective. […] One set of SIM Synthetic Focus images were taken in the DAPI channel for Hoechst 33342 staining, and another set of images were taken in the FITC channel for anti-E-cadherin-AlexaFluor488 labeling and analysed by Structured Illumination Microscopy (SIM™) platform to image the cells and Vala's CyteSeer® Cell-Cell Junction Algorithm to quantify the degree of expression and intracellular location of E-cadherin Vala's CyteSeer® Software can also measure relative DNA content by analyzing Total Integrated Intensity (TII) of the Nuclear Image (Ni) on the Nuclear Mask (Nm). […]

[7] = tested on: Hakai-dependent ubiquitination of the E-cadherin complex; experiment: Hakai-dependent ubiquitination of the E-cadherin complex (immunoprecipitation); assay type: cell-based; settings: 293T cells transfected with Flag-Hakai, myc-E-cadherin, v-Src, HA-ubiquitin; IP anti-E-cadherin
Protocol: For immunoprecipitation experiments, 293 cells were transfected with 3 μg Src, 4 μg Flag-Hakai, and 2 μg HA-ubiquitin and 3 μg E-cadherin with Lipofectamin 2000 (Invitrogen, UK). 24 h after transfection, cells were lysed for 20 min in 1 ml of 1% Triton X-100 lysis buffer (20 mM Tris-HCl pH 7.5, 150 mM NaCl and 1% Triton X-100) containing 10 μg/ml leupeptin, 10 μg/ml aprotinin and 1 mM phenylmethanesulphonyl fluoride (PMSF), supplemented with 10 mM N-ethylmaleimide and 2.5 mM sodium orthovanadate. After centrifugation at 18.000 g for 10 min, the supernatants were immunoprecipitated for 2 h with 2 μg of anti-E-cadherin antibody bound to 60 μl of protein G PLUS-Agarose beads, followed by SDS-polyacrylamide gel electrophoresis (PAGE) and western blotting with the indicated antibodies as previously reported.

[8] = tested on: Hakai-transformed MDCK cells; experiment: Phase-contrast cell phenotype, Hakai-MDCK; assay type: cell-based; settings: Hakai-transformed MDCK cells (mesenchymal phenotype)
Protocol: MDCK, HEK293T, HepG2, MCF7 and ACHN cells were cultured in Dulbecco's Modified Eagles Medium (DMEM). MDCK stably expressing Hakai cells (Hakai-MDCK) were previously reported and were growth in DMEM with G418 (800 μg/ml). […] LoVo and PC-3 cells were cultured in F-12K Medium (Kaighn's Modification of Ham's F-12 Medium) and HT-29 and HCT116 cells in McCoy's 5a Medium Modified. 5637 cells were cultured in RPMI medium. All culture media were supplemented with 1% penicillin/streptomycin and 10% of heat-inactivated fetal bovine serum (FBS) at 37° C. in a humidified incubator with 5% CO2. Cells were monthly tested for mycoplasma contamination and used only for 1-3 months after defrosted. LoVo and HT29 cells were authenticated with the StemElite ID system (Promega). For phase-contrast images, culture cells were photographed with a Nikon Eclipse-TI microscope.

[9] = tested on: prostate cancer PC-3 cells; experiment: BrdU proliferation assay, PC-3; assay type: cell-based, human; settings: 48 h
Protocol: as §3

| compound remaining after 60 min [1] | SMILES | cytotoxic effect (cell viability, MTT) [2] | sensitivity to treatment (cell viability, MTT) [3] | cell proliferation (BrdU) (LoVo cells [4]) | half-life at 3 μM [5] [min] | E-cadherin levels at cell-cell contacts (immunofluorescence) (LoVo cells [6]) | Hakai-dependent ubiquitination of E-cadherin complex [7] | cell phenotype by phase contrast [8] | cell proliferation (BrdU) [9] |
| --- | --- | --- | --- | --- | --- | --- | --- | --- | --- |
| 95%-100% | O=C(O)c1ccc(-n2nnnc2SCC(O)c2ccc([N+](=O)[O-])cc2)cc1 (stereo not drawn) [MKH1] | no cytotoxic effect | – | – | – | – | – | – | – |
| – | O=C(O)c1ccc(-n2nnnc2SCC(=O)c2ccc([N+](=O)[O-])cc2)cc1 [Hakin-1, 4-(5-[2-(4-nitrophenyl)-2-oxoethyl]thiol-1H-tetrazol-1-yl)benzoic acid] | – | more sensitive | reduced cell proliferation | 5.92 | significant increase E-cadherin levels at cell-cell contacts | reduction of Hakai-dependent ubiquitination of E-cadherin complex | induction of an epithelial phenotype | inhibited cell proliferation |
